According to patent US11472803B2, “7-substituted 1-aryl-naphthyridine-3-carboxylic acid amides and use thereof” (Bayer Aktiengesellschaft, priority 2016, dated 2022):
Counter-ions that a name gives are not always drawn.

Biological target: T1, human M2 receptor (Homo sapiens, UniProt P08172)
T1 construct: expressed in transfected cells; host or cells: CHO-DUKX (CHO-DUKX-M2-GIRK)
T1 sequence (P08172 1-466): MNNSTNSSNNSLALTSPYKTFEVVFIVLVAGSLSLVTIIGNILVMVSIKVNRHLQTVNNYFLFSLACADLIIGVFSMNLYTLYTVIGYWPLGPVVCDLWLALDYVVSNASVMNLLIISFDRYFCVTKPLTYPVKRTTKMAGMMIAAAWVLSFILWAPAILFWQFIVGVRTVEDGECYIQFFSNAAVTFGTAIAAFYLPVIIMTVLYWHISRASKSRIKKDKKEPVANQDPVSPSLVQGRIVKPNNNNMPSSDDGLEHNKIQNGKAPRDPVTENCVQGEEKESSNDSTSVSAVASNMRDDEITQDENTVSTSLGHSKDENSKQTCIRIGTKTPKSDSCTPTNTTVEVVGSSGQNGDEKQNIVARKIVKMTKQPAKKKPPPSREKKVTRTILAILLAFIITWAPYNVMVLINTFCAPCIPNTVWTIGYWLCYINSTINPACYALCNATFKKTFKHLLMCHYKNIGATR
Assay: Functional M2-GIRK1/4 activation test: allosteric potency (EC50) and efficiency at EC20 acetylcholine
Assay type: cell-based
Details: CHO-DUKX-M2-GIRK cells; for EC50: voltage-sensitive dye, acetylcholine at EC20, in some cases mean of two or more determinations; for Emax: boosting of the acetylcholine effect at EC20 acetylcholine concentration
Procedure, shortened: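 Positive allosteric modulation measured as boosting of an EC20 acetylcholine response: hyperpolarization via GIRK1/4 in CHO-DUKX-M2-GIRK cells, monitored by membrane-potential dye fluorescence over 60 s after agonist, compound preadded. Hill-function fit gives EC50 and efficiency.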

| SMILES | EC50 | Emax |
| --- | --- | --- |
| C[C@@H](NC(=O)c1cn(-c2c(F)cc(F)cc2F)c2nc(N3C[C@@H](O)[C@H](O)C3)c(F)cc2c1=O)C1CC1 [Example 19, N-[(1R)-1-cyclopropylethyl]-7-[(3R,4R)-3,4-dihydroxypyrrolidin-1-yl]-6-fluoro-4-oxo-1-(2,4,6-trifluorophenyl)-1,4-dihydro-1,8-naphthyridine-3-carboxamide] | 16 nM | 98% |
| C[C@H](NC(=O)c1cn(-c2c(F)cc(F)cc2F)c2nc(N3C[C@@H](O)[C@H](O)C3)c(F)cc2c1=O)C1CC1 [Example 20, N-[(1S)-1-cyclopropylethyl]-7-[(3R,4R)-3,4-dihydroxypyrrolidin-1-yl]-6-fluoro-4-oxo-1-(2,4,6-trifluorophenyl)-1,4-dihydro-1,8-naphthyridine-3-carboxamide] | 13 nM | 92% |
| O=C(NC(C1CC1)C1CC1)c1cn(-c2c(F)cc(F)cc2F)c2nc(N3C[C@@H](O)[C@H](O)C3)c(F)cc2c1=O [Example 21, N-(dicyclopropylmethyl)-7-[(3R,4R)-3,4-dihydroxypyrrolidin-1-yl]-6-fluoro-4-oxo-1-(2,4,6-trifluorophenyl)-1,4-dihydro-1,8-naphthyridine-3-carboxamide] | 3 nM | 100% |
| CCC(COC(F)(F)F)NC(=O)c1cn(-c2c(F)cc(F)cc2F)c2nc(N3C[C@@H](O)[C@H](O)C3)c(F)cc2c1=O (stereo partly drawn) [Example 26, 7-[(3R,4R)-3,4-dihydroxypyrrolidin-1-yl]-6-fluoro-4-oxo-N-[(2)-1-(trifluoromethoxy)butan-2-yl]-1-(2,4,6-trifluorophenyl)-1,4-dihydro-1,8-naphthyridine-3-carboxamide] | 4.03 nM | 100% |
| CC[C@H](NC(=O)c1cn(-c2c(F)cc(F)cc2F)c2nc(N3C[C@@H](O)[C@H](OC(C)=O)C3)c(F)cc2c1=O)C(F)(F)F [Example 35, (3R,4R)-1-[3-Fluoro-5-oxo-6-{[(2S)-1,1,1-trifluorobutan-2-yl]carbamoyl}-8-(2,4,6-trifluoro-phenyl)-5,8-dihydro-1,8-naphthyridin-2-yl]-4-hydroxypyrrolidin-3-yl acetate] | 2.9 nM | 100% |
| CC[C@H](NC(=O)c1cn(-c2c(F)cc(F)cc2F)c2nc(N3C[C@@H](O)[C@H](O)C3)c(Cl)cc2c1=O)C(F)(F)F [Example 38, 6-chloro-7-[(3R,4R)-3,4-dihydroxypyrrolidin-1-yl]-4-oxo-N-[(2S)-1,1,1-trifluorobutan-2-yl]-1-(2,4,6-trifluorophenyl)-1,4-dihydro-1,8-naphthyridine-3-carboxamide] | 10.1 nM | 100% |
| CC[C@H](NC(=O)c1cn(-c2c(F)cc(F)cc2Cl)c2nc(N3C[C@@H](O)[C@H](O)C3)c(F)cc2c1=O)C(F)(F)F [Example 40, 1-(2-chloro-4,6-difluorophenyl)-7-[(3R,4R)-3,4-dihydroxypyrrolidin-1-yl]-6-fluoro-4-oxo-N-[(2S)-1,1,1-trifluorobutan-2-yl]-1,4-dihydro-1,8-naphthyridine-3-carboxamide] | 2.3 nM | 98% |
| O=C(N[C@@H](C1CC1)C(F)(F)F)c1cn(-c2c(F)cc(F)cc2Cl)c2nc(N3C[C@@H](O)[C@H](O)C3)c(F)cc2c1=O [Example 42, 1-(2-chloro-4,6-difluorophenyl)-N-[(1S)-1-cyclopropyl-2,2,2-trifluoroethyl]-7-[(3R,4R)-3,4-dihydroxypyrrolidin-1-yl]-6-fluoro-4-oxo-1,4-dihydro-1,8-naphthyridine-3-carboxamide] | 4 nM | 100% |
| C[C@H](NC(=O)c1cn(-c2c(F)cc(F)cc2Cl)c2nc(N3C[C@@H](O)[C@H](O)C3)c(F)cc2c1=O)C1CC1 [Example 43, 1-(2-chloro-4,6-difluorophenyl)-N-[(1S)-1-cyclopropylethyl]-7-[(3R,4R)-3,4-dihydroxypyrrolidin-1-yl]-6-fluoro-4-oxo-1,4-dihydro-1,8-naphthyridine-3-carboxamide] | 7.5 nM | 100% |
| C[C@@H](NC(=O)c1cn(-c2c(F)cc(F)cc2Cl)c2nc(N3C[C@@H](O)[C@H](O)C3)c(F)cc2c1=O)C1CC1 [Example 44, 1-(2-chloro-4,6-difluorophenyl)-N-[(1R)-1-cyclopropylethyl]-7-[(3R,4R)-3,4-dihydroxypyrrolidin-1-yl]-6-fluoro-4-oxo-1,4-dihydro-1,8-naphthyridine-3-carboxamide] | 12 nM | 100% |
| CN(CCO)c1nc2c(cc1F)c(=O)c(C(=O)N[C@@H](C1CC1)C(F)(F)F)cn2-c1c(F)cc(F)cc1F [Example 55, N-[(1S)-1-Cyclopropyl-2,2,2-trifluoroethyl]-6-fluoro-7-[(2-hydroxyethyl)(methyl)amino]-4-oxo-1-(2,4,6-trifluorophenyl)-1,4-dihydro-1,8-naphthyridine-3-carboxamide] | 25 nM | 96% |
| CC1(O)CN(c2nc3c(cc2F)c(=O)c(C(=O)NC(C2CC2)C2CC2)cn3-c2ncc(F)cc2F)C1 [Example 56, N-(Dicyclopropylmethyl)-1-(3,5-difluoropyridin-2-yl)-6-fluoro-7-(3-hydroxy-3-methylazetidin-1-yl)-4-oxo-1,4-dihydro-1,8-naphthyridine-3-carboxamide] | 35 nM | 100% |
| CC[C@H](NC(=O)c1cn(-c2c(F)cc(F)cc2F)c2nc(N3CCCC[C@H]3CO)c(F)cc2c1=O)C(F)(F)F [Example 57, 6-Fluoro-7-[(2S)-2-(hydroxymethyl)piperidin-1-yl]-4-oxo-N-[(2S)-1,1,1-trifluorobutan-2-yl]-1-(2,4,6-trifluorophenyl)-1,4-dihydro-1,8-naphthyridine-3-carboxamide] | 78.5 nM | 89% |
| O=C(N[C@@H](C1CC1)C(F)(F)F)c1cn(-c2c(F)cc(F)cc2F)c2nc(N3CCCC[C@H]3CO)c(F)cc2c1=O [Example 58, N-[(1S)-1-Cyclopropyl-2,2,2-trifluoroethyl]-6-fluoro-7-[(2S)-2-(hydroxymethyl)piperidin-1-yl]-4-oxo-1-(2,4,6-trifluorophenyl)-1,4-dihydro-1,8-naphthyridine-3-carboxamide] | 104 nM | 90% |
| O=C(N[C@@H](C1CC1)C(F)(F)F)c1cn(-c2c(F)cc(F)cc2F)c2nc(N3C[C@@H](O)CC3=O)c(F)cc2c1=O [Example 59, N-[(1S)-1-Cyclopropyl-2,2,2-trifluoroethyl]-6-fluoro-7-[(4S)-4-hydroxy-2-oxopyrrolidin-1-yl]-4-oxo-1-(2,4,6-trifluorophenyl)-1,4-dihydro-1,8-naphthyridine-3-carboxamide] | 91.5 nM | 97% |
| CN(C)c1nc2c(cc1F)c(=O)c(C(=O)NC(C)(C)C)cn2-c1c(F)cc(F)cc1F [Example 60, N-tert-Butyl-7-(dimethylamino)-6-fluoro-4-oxo-1-(2,4,6-trifluorophenyl)-1,4-dihydro-1,8-naphthyridine-3-carboxamide] | 3.6 nM | 100% |
| CCC(C)(C)NC(=O)c1cn(-c2c(F)cc(F)cc2F)c2nc(N(C)C)c(F)cc2c1=O [Example 61, 7-(Dimethylamino)-6-fluoro-N-(2-methylbutan-2-yl)-4-oxo-1-(2,4,6-trifluorophenyl)-1,4-dihydro-1,8-naphthyridine-3-carboxamide] | 2.2 nM | 94% |
| CN(C)c1nc2c(cc1F)c(=O)c(C(=O)NC(C)(C)C(F)(F)F)cn2-c1c(F)cc(F)cc1F [Example 62, 7-(Dimethylamino)-6-fluoro-4-oxo-N-(1,1,1-trifluoro-2-methylpropan-2-yl)-1-(2,4,6-trifluoro-phenyl)-1,4-dihydro-1,8-naphthyridine-3-carboxamide] | 4.1 nM | 88% |
| CN(C)c1nc2c(cc1F)c(=O)c(C(=O)NC(C)(C)CC(F)(F)F)cn2-c1c(F)cc(F)cc1F [Example 63, 7-(Dimethylamino)-6-fluoro-4-oxo-N-(4,4,4-trifluoro-2-methylbutan-2-yl)-1-(2,4,6-trifluoro-phenyl)-1,4-dihydro-1,8-naphthyridine-3-carboxamide] | 3.9 nM | 92% |
| C[C@H](O)CN(C)c1nc2c(cc1F)c(=O)c(C(=O)N[C@@H](C1CC1)C(F)(F)F)cn2-c1c(F)cc(F)cc1F [Example 64, N-[(1S)-1-Cyclopropyl-2,2,2-trifluoroethyl]-6-fluoro-7-{[(2S)-2-hydroxypropyl](methyl)amino}-4-oxo-1-(2,4,6-trifluorophenyl)-1,4-dihydro-1,8-naphthyridine-3-carboxamide] | 12 nM | 96% |
| O=C(N[C@@H](C1CC1)C(F)(F)F)c1cn(-c2c(F)cc(F)cc2Cl)c2nc(N3CC4(COC4)C3)c(F)cc2c1=O [Example 68, 1-(2-Chloro-4,6-difluorophenyl)-N-[(1S)-1-cyclopropyl-2,2,2-trifluoroethyl]-6-fluoro-7-(2-oxa-6-azaspiro[3.3]hept-6-yl)-4-oxo-1,4-dihydro-1,8-naphthyridine-3-carboxamide trifluoroacetate] | 32 nM | 92% |
